From patent US10954252B1, “Inhibitors of human immunodeficiency virus replication” (ViiV HEALTHCARE UK (NO.5) LIMITED, priority 2017, dated 2021)

Legend:
[1] = test system: recombinant NL4-3 virus (nef section replaced with Renilla luciferase gene) in MT-2 cells; assay: HIV cell culture assay (antiviral activity, luciferase readout); format: cell-based; settings: MT-2 cells infected for 4-5 days with recombinant NL4-3 luciferase virus
Outline: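 Serially diluted compounds were present throughout a 4-5 day infection of MT-2 cells by recombinant NL4-3 whose nef region partly encodes Renilla luciferase. Antiviral activity was taken from live-cell luciferase signal, with the 50% effective concentration fitted by the exponential median effect equation.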

[2] = Compound cytotoxicity, XTT-based colorimetric assay; format: cell-based; settings: human, uninfected MT2 cells
Outline: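 XTT colorimetric read-out on day 4 gave CC50 values, using MT2 cells left uninfected but otherwise handled as in the antiviral assay.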

SMILES	EC50 ([1]; Renilla, NL43, Table 1a)	CC50 at 4 days ([2]; Table 1a, day 4, XTT)	EC50 ([1]; Renilla, NL43, Table 1)	CC50 at 4 days ([2]; Table 1, day 4, XTT)	further results
Cn1nc(NS(C)(=O)=O)c2c(Cl)ccc(-n3c([C@H](Cc4cc(F)cc(F)c4)NC(=O)Cn4nc(C(F)F)c5c4C(F)(F)[C@@H]4C[C@H]54)nc4cc(C(C)(F)F)ccc4c3=O)c21 (mixture of isomers) [Example 195, N—((S)-1-(3-(4-chloro-1-methyl-3-(methylsulfonamido)-1H-indazol-7-yl)-7-(1,1-difluoroethyl)-4-oxo-3,4-dihydroquinazolin-2-yl)-2-(3,5-difluorophenyl)ethyl)-2-((3bS,4aR)-3-(difluoromethyl)-5,5-difluoro-3b,4,4a,5-tetrahydro-1H-cyclopropa[3,4]cyclopenta[1,2-c]pyrazol-1-yl)acetamide]	74.4 nM	> 1000 nM	–	–	–
COc1c(F)cc2c(=O)n(-c3ccc(Cl)c4c(NS(C)(=O)=O)nn(C)c34)c(C(Cc3cc(F)cc(F)c3)NC(=O)Cn3nc(C(F)F)c4c3C(F)(F)[C@@H]3C[C@H]43)nc2c1F (some centres unmarked) [Example 113]	8.43 nM	> 1000 nM	–	–	–
COc1ccc2c(=O)n(-c3ccc(Cl)c4c(NS(C)(=O)=O)nn(CC(F)F)c34)c([C@H](Cc3cc(F)cc(F)c3)NC(=O)Cn3nc(C(F)F)c4c3C(F)(F)[C@@H]3C[C@H]43)nc2n1 (mixture of isomers) [Example 54.2, N-[(1S)-1-{3-[4-chloro-1-(2,2-difluoroethyl)-3-methanesulfonamido-1H-indazol-7-yl]-7-methoxy-4-oxo-3H,4H-pyrido[2,3-d]pyrimidin-2-yl}-2-(3,5-difluorophenyl)ethyl]-2-[(2S,4R)-9-(difluoromethyl)-5,5-difluoro-7,8-diazatricyclo[4.3.0.0^2,4]nona-1(6),8-dien-7-yl]acetamide]	0.026 nM	> 1000 nM	–	–	–
Cn1nc(NS(C)(=O)=O)c2c(Cl)ccc(-n3c([C@H](Cc4cc(F)cc(F)c4)NC(=O)Cn4ccc(N)n4)nc4ncccc4c3=O)c21 (single isomer, unassigned) [Example 50.2]	32.1 nM	> 1000 nM	–	–	–
Cn1nc(NS(C)(=O)=O)c2c(Cl)ccc(-n3c([C@H](Cc4cc(F)cc(F)c4)NC(=O)Cn4nc(C(F)F)c5c4C(F)(F)[C@@H]4C[C@H]54)nc4cc(C5CC5)ccc4c3=O)c21 (mixture of isomers) [Example 197, N—((S)-1-(3-(4-chloro-1-methyl-3-(methylsulfonamido)-1H-indazol-7-yl)-7-cyclopropyl-4-oxo-3,4-dihydroquinazolin-2-yl)-2-(3,5-difluorophenyl)ethyl)-2-((3bS,4aR)-3-(difluoromethyl)-5,5-difluoro-3b,4,4a,5-tetrahydro-1H-cyclopropa[3,4]cyclopenta[1,2-c]pyrazol-1-yl)acetamide]	–	> 1000 nM	–	–	EC50 ([1]; Table 1a): 42.6 nM
Cn1nc(NS(C)(=O)=O)c2c(Cl)ccc(-n3c([C@H](Cc4cc(F)cc(F)c4)NC(=O)Cc4n[nH]c5ccc(O)cc45)nc4ncccc4c3=O)c21 (single isomer, unassigned) [Example 49.1]	93 nM	> 1000 nM	–	–	–
Cn1nc(NS(C)(=O)=O)c2c(Cl)ccc(-n3c(C(Cc4cc(F)cc(F)c4)NC(=O)Cn4nc(C(F)F)c5c4C(F)(F)[C@@H]4C[C@H]54)nc4ncc(C#N)cc4c3=O)c21 (mixture of isomers) [Example 37.2, N-(1-(3-(4-chloro-1-methyl-3-(methylsulfonamido)-1H-indazol-7-yl)-6-cyano-4-oxo-3,4-dihydropyrido[2,3-d]pyrimidin-2-yl)-2-(3,5-difluorophenyl)ethyl)-2-((3bS,4aR)-3-(difluoromethyl)-5,5-difluoro-3b,4,4a,5-tetrahydro-1H-cyclopropa[3,4]cyclopenta[1,2-c]pyrazol-1-yl)acetamide]	0.54 nM	> 10000 nM	–	–	–
CC(C)c1ccc(-n2c([C@H](Cc3cc(F)cc(F)c3)NC(=O)Cn3nc(C(F)F)c4c3C(F)(F)[C@@H]3C[C@H]43)nc3ccccc3c2=O)cn1 [Example 10.34]	–	–	15 nM	7900 nM	–
COc1c(F)cc2c(=O)n(-c3ccc(Cl)c4c(NS(C)(=O)=O)nn(C)c34)c([C@H](Cc3cc(F)cc(F)c3)NC(=O)Cn3ccc(C4CC4)n3)nc2c1F (single isomer, unassigned) [Example 115]	–	> 1000 nM	–	–	EC50 ([1]; Table 1a): 68.4 nM
O=C(Cn1nc(C(F)F)c2c1C(F)(F)[C@@H]1C[C@H]21)N[C@@H](Cc1cc(F)cc(F)c1)c1nc2cn[nH]c2cc1-c1ccc(Cl)c(C(=O)NS(=O)(=O)C2CC2)c1 [Example 10.16, 2-Chloro-N-(cyclopropylsulfonyl)-5-(5-((S)-1-(2-((3bS,4aR)-3-(difluoromethyl)-5,5-difluoro-3b,4,4a,5-tetrahydro-1H-cyclopropa[3,4]cyclopenta[1,2-c]pyrazol-1-yl)acetamido)-2-(3,5-difluorophenyl)ethyl)-1H-pyrazolo[4,3-b]pyridin-6-yl)benzamide]	–	–	340 nM	> 10000 nM	–
Cn1nc(NS(C)(=O)=O)c2c(Cl)ccc(-n3c([C@H](Cc4cc(F)cc(F)c4)NC(=O)Cn4nc(C(F)F)c5c4CCC5)nc4ncccc4c3=O)c21 (single isomer, unassigned) [Example 46.1]	10.3 nM	> 1000 nM	–	–	–
Cn1nc(NS(C)(=O)=O)c2c(Cl)ccc(-c3cc4[nH]cnc4nc3C(Cc3cc(F)cc(F)c3)NC(=O)Cn3nc(C(F)F)c4c3C(F)(F)[C@@H]3C[C@H]43)c21 (single isomer, unassigned) [Example 4.1]	–	–	–	> 10000 nM	EC50 ([1]; Table 1): 230 nM
COc1ccc(-n2c([C@H](Cc3cc(F)cc(F)c3)NC(=O)Cc3c[nH]c4ccc(O)cc34)nc3ncccc3c2=O)cc1 [Example 9.2, (S)—N-(2-(3,5-difluorophenyl)-1-(3-(4-methoxyphenyl)-4-oxo-3,4-dihydropyrido[2,3-d]pyrimidin-2-yl)ethyl)-2-(5-hydroxy-1H-indol-3-yl)acetamide]	–	–	4.7 nM	> 10000 nM	–
Cn1nc(NS(C)(=O)=O)c2c(Cl)ccc(-c3cc4[nH]ncc4nc3[C@H](Cc3cc(F)cc(F)c3)NC(=O)Cc3c[nH]c4ccc(O)cc34)c21 [Example 10.22]	–	–	22 nM	> 10000 nM	–
CC(C)c1ccc(-c2c(C(Cc3cc(F)cc(F)c3)NC(=O)Cn3nc(C(F)F)c4c3C(F)(F)[C@@H]3C[C@H]43)ncc3[nH]ncc23)cn1 (mixture of isomers) [Example 10.1]	–	–	140 nM	> 10000 nM	–
Cn1nc(NS(C)(=O)=O)c2c(Cl)ccc(-n3c([C@H](Cc4cc(F)cc(F)c4)NC(=O)Cn4nc(C(F)F)c5c4C(F)(F)[C@@H]4C[C@H]54)nc4cc(Cl)ccc4c3=O)c21 (mixture of isomers) [Example 167, N—((S)-1-(7-chloro-3-(4-chloro-1-methyl-3-(methylsulfonamido)-1H-indazol-7-yl)-4-oxo-3,4-dihydroquinazolin-2-yl)-2-(3,5-difluorophenyl)ethyl)-2-((3bS,4aR)-3-(difluoromethyl)-5,5-difluoro-3b,4,4a,5-tetrahydro-1H-cyclopropa[3,4]cyclopenta[1,2-c]pyrazol-1-yl)acetamide]	–	> 1000 nM	–	–	EC50 ([1]; Table 1a): 80.5 nM
